{"source": "patent US12037325B2", "about": "“1,2-diaminobenzimidazole derivative” (Carna Biosciences, Inc., priority 2021, dated 2024)", "key": {"hSTING": {"target": "T1, hSTING (Homo sapiens, UniProt Q86WV6)", "T1 construct": "host or cells: HEK-Blue ISG cells (HEK293-derived SEAP reporter line)", "T1 sequence (Q86WV6 whole entry H232R)": "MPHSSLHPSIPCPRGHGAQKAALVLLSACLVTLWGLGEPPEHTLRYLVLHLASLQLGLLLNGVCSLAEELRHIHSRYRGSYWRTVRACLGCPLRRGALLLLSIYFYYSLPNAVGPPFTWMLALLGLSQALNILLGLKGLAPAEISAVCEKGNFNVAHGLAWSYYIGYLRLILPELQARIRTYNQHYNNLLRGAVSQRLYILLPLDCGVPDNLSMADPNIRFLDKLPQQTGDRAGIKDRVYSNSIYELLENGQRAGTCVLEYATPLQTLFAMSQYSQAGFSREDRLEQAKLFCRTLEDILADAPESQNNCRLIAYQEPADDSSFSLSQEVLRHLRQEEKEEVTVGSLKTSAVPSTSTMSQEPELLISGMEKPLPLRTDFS", "assay": "Inhibition test of intracellular human STING (hSTING) pathways using reporter cells (HEK-Blue ISG, SEAP reporter)", "format": "cell-based", "conditions": "stimulation with Compound 3 (10 nM), 21 hours, read-out: Inhibitory Activity on hSTING", "method": "Since STING activates the transcription factor IRF3 by ligand stimulation, the activity of STING can be evaluated by a reporter assay using a secreted alkaline phosphatase (SEAP reporter) incorporated downstream of the IRF-inducible promoter. In other words, the hSTING inhibitory activity of the test compounds was evaluated using HEK-Blue™ ISG cells (manufactured by InvivoGen, #hkb-isg-1) into which the SEAP reporter was incorporated. The activation of hSTING was performed by stimulation with the small molecule ligand, Compound 3 as described in the literature (Ramanjulu, J. M., et al., Nature. 2018, 564 (7736), 439-443).\nThe HEK-Blue™ ISG cells were seeded in 96-well plates and cultured overnight at 37° C. in a 5% CO2 incubator. To each well of the cell culture plates, a test compound solution adjusted to have a final concentration of 0.1 to 10 μM was added and cultured in the CO2 incubator for 1 hour. Then, the Compound 3 (final concentration of 10 nM) was added thereto and further cultured in the CO2 incubator for 21 hours. After collecting the culture supernatant from each well, the reporter activity was measured by luminous reaction of alkaline phosphatase.\n(§1) Method for Evaluating Inhibitory Activity. Taking the reporter activity in the group without test compounds added and with Compound 3 added as 100% and the reporter activity in the group without test compounds added and without Compound 3 added as 0%, IC50 values were determined by regression analysis of the inhibition rate calculated from the reporter activity at each compound concentration and the test compound concentration (logarithm).\nEvaluation Result. […] The inhibitory effect on the hSTING was indicated by marking an IC50 value of less than 0.1 μM with ***, that of 0.1 μM or more and less than 1 μM with **, that of 1 μM or more and less than 10 μM with *, and that of 10 μM or more with “-”."}, "STING": {"target": "T2, STING (Homo sapiens, UniProt Q86WV6, G230A/H232R/R293Q/R71H)", "T2 construct": "host or cells: THP-1 cells, PMA-treated", "T2 sequence (Q86WV6 whole entry R71H/G230A/H232R/R293Q)": "as the sequence (Q86WV6 whole entry H232R) above, with R71H, G230A, R293Q counted along it", "assay": "Inhibition test of human IFN-β production by cGAMP stimulation in THP-1 cells", "format": "cell-based", "conditions": "PMA-treated THP-1 cells, 2'3'-cGAMP transfection, 18 hours, ELISA of culture supernatant; read-out: Inhibitory effect on the IFN-β production", "method": "The human monocytic cell line THP-1 cells were used to measure the amount of IFN-β produced when stimulated with the endogenous ligand cGAMP, thereby evaluating the inhibitory activity of the test compounds on STING activation.\nAfter THP-1 cells (manufactured by ATCC) were seeded in 96-well plates, PMA (manufactured by Santa Cruz Biotechnology, Inc.) adjusted to a concentration after addition of 100 nM was added and cultured overnight at a 37° C. in a 5% CO2 incubator (10% FBS, 50 U/mL penicillin/50 μg/mL streptomycin-containing RPMI 1640 medium). To each well of the plate, a test compound solution adjusted to a final concentration of 0.001-1 μM of the test compound was added and cultured in the CO2 incubator for 1 hour (DMSO final concentration of 0.1%). 0.12 μg/well of 2′3′-cGAMP (manufactured by ChemieTek, #CT-CGAMP) was introduced into the cells by transfection method using Lipofectamine 2000 (manufactured by Invitrogen) and cultured in the CO2 incubator for another 18 hours. After collecting the culture supernatant from each well, the amount of human IFN-P production in the culture supernatant was measured by ELISA method using R&D human IFN-β Duoset (manufactured by R&D systems).\nas §1, with “amount of human IFN-β production” for “reporter activity”, “cGAMP” for “Compound 3”\nEvaluation Result. […] The inhibitory effect on the IFN-β production was indicated by marking an IC50 value of less than 0.01 μM with ***, that of 0.01 μM or more and less than 0.1 μM with **, that of 0.1 μM or more and less than 1 μM with *, and that of 1 μM or more with “-”, and NT was marked as unmeasured."}}, "note": "Counter-ions that a name gives are not always drawn.", "data": [{"smiles": "Nn1c(Nc2c[nH]c3ccc(F)c(F)c23)nc2cc(C(F)(F)F)ccc21", "note": "[Example 11, N2-(4,5-difluoro-1H-indol-3-yl)-5-(trifluoromethyl)-1H-benzo[d]imidazole-1,2-diamine hydrochloride]", "values": [{"measurement": "IC50", "setting": "hSTING", "value": "100 to 1000", "unit": "nM"}, {"measurement": "IC50", "setting": "STING", "value": "10 to 100", "unit": "nM"}]}, {"smiles": "Nn1c(Nc2c[nH]c3c(F)cc(F)cc23)nc2cc(C(F)(F)F)ccc21", "note": "[Example 21, N2-(5,7-difluoro-1H-indol-3-yl)-5-(trifluoromethyl)-1H-benzo[d]imidazole-1,2-diamine hydrochloride]", "values": [{"measurement": "IC50", "setting": "hSTING", "value": "< 100", "unit": "nM"}, {"measurement": "IC50", "setting": "STING", "value": "100 to 1000", "unit": "nM"}]}, {"smiles": "CNn1c(Nc2c[nH]c3ccc(Cl)nc23)nc2cc(C(F)(F)F)ccc21", "note": "[Example 26, N2-(5-chloro-1H-pyrrolo[3,2-b]pyridin-3-yl)-N1-methyl-5-(trifluoromethyl)-1H-benzo[d]imidazole-1,2-diamine hydrochloride]", "values": [{"measurement": "IC50", "setting": "hSTING", "value": "1000 to 10000", "unit": "nM"}, {"measurement": "IC50", "setting": "STING", "value": "100 to 1000", "unit": "nM"}]}, {"smiles": "CNn1c(Nc2c[nH]c3c(F)cc(F)cc23)nc2cc(C(F)(F)F)ccc21", "note": "[Example 5, N2-(5,7-difluoro-1H-indol-3-yl)-N1-methyl-5-(trifluoromethyl)-1H-benzo[d]imidazol-1,2-diamine]", "values": [{"measurement": "IC50", "setting": "hSTING", "value": "< 100", "unit": "nM"}, {"measurement": "IC50", "setting": "STING", "value": "< 10", "unit": "nM"}]}, {"smiles": "Cc1ccc2[nH]cc(Nc3nc4cc(C(F)(F)F)c(F)cc4n3N)c2c1", "note": "[Example 9, 6-fluoro-N2-(5-methyl-1H-indol-3-yl)-5-(trifluoromethyl)-1H-benzo[d]imidazole-1,2-diamine hydrochloride]", "values": [{"measurement": "IC50", "setting": "hSTING", "value": "100 to 1000", "unit": "nM"}, {"measurement": "IC50", "setting": "STING", "value": "< 10", "unit": "nM"}]}]}
